From patent US10221165B2, “Flavone based EGFR inhibitors and process for preparation thereof” (Council of Scientific and Industrial Research, priority 2015, dated 2019) come the findings set out here.

The first data set has as its system A549 Cell line (Lung Cancer Cell line). The experiment in a line: Cell proliferation assay (MTT), in-vitro anticancer activity against A549 cell line. In kind it is cell-based. Particulars: Homo sapiens, A549, 0.01 μM, 72 h. Here is the method:
(§1) Each cell line was plated in 96-well microtiter plates (10,000 cells per well), and serial dilutions of indicated compounds were added. At the end of the incubation period (72 h at 37° C.), cell viability was determined by a tetrazolium dye, MTT (3-(4,5-dimethylthiazol-2-yl)-2,5-diphenyl tetrazolium bromide) (Promega, USA). The formazan crystals were dissolved in DMSO, and the absorbance at 600 nm was recorded using an ELISA plate reader. IC50 values were calculated using nonlinear regression and defined as the concentration needed for a 50% reduction in absorbance of treated versus untreated control cells.
In-Vitro Anticancer Activity Against A549 Cell Line (Lung Cancer Cell Line) (Adenocarcinomic Human Alveolar Basal Epithelial Cells)
By viability is commonly meant a per cent measure of how many cells are alive, often set against a control. A higher viability goes with less harm to the cells. The molecule `Nc1nc(Nc2ccccc2)sc1-c1cc(=O)c2ccccc2o1` [Compound S1-M1, 2-(4-amino-2-(phenylamino)thiazol-5-yl)-4H-chromen-4-one] yielded a viability at 0.01 µM of 100%.

For the molecule `Cc1ccc(Nc2nc(N)c(-c3cc(=O)c4ccc(O)cc4o3)s2)cc1` [Compound S1-M2, 2-(2-(p-tolylamino)-4-aminothiazol-5-yl)-7-hydroxy-4H-chromen-4-one], the viability at 0.01 µM turned out to be 56.1%.

For the molecule `Cc1ccccc1Nc1nc(N)c(-c2cc(=O)c3ccc(O)cc3o2)s1` [Compound S1-M3, 2-(2-(o-tolylamino)-4-aminothiazol-5-yl)-7-hydroxy-4H-chromen-4-one], the viability at 0.01 µM stood at 97.6%.

Still in this data set, the particulars now being: Homo sapiens, A549, 0.1 μM, 72 h.
Molecule `Nc1nc(Nc2ccccc2)sc1-c1cc(=O)c2ccccc2o1` [Compound S1-M1, 2-(4-amino-2-(phenylamino)thiazol-5-yl)-4H-chromen-4-one] displayed a viability at 0.1 µM of 90.5%.

As to `Cc1ccc(Nc2nc(N)c(-c3cc(=O)c4ccc(O)cc4o3)s2)cc1` [Compound S1-M2, 2-(2-(p-tolylamino)-4-aminothiazol-5-yl)-7-hydroxy-4H-chromen-4-one], the viability at 0.1 µM came to 41.1%.

With `Cc1ccccc1Nc1nc(N)c(-c2cc(=O)c3ccc(O)cc3o2)s1` [Compound S1-M3, 2-(2-(o-tolylamino)-4-aminothiazol-5-yl)-7-hydroxy-4H-chromen-4-one], the viability at 0.1 µM was found to be 91.4%.

Still in this data set, the particulars now being: Homo sapiens, A549, 2.5 μM, 72 h.
Molecule `Nc1nc(Nc2ccccc2)sc1-c1cc(=O)c2ccccc2o1` [Compound S1-M1, 2-(4-amino-2-(phenylamino)thiazol-5-yl)-4H-chromen-4-one] gave a viability at 2.5 µM of 82.5%.

As for `Cc1ccc(Nc2nc(N)c(-c3cc(=O)c4ccc(O)cc4o3)s2)cc1` [Compound S1-M2, 2-(2-(p-tolylamino)-4-aminothiazol-5-yl)-7-hydroxy-4H-chromen-4-one], the viability at 2.5 µM came out at 31.1%.

For `Cc1ccccc1Nc1nc(N)c(-c2cc(=O)c3ccc(O)cc3o2)s1` [Compound S1-M3, 2-(2-(o-tolylamino)-4-aminothiazol-5-yl)-7-hydroxy-4H-chromen-4-one], the viability at 2.5 µM stood at 85.8%.

The data set is the same for the next values; noted with them: Homo sapiens, A549, 5 μM, 72 h.
For the molecule `Nc1nc(Nc2ccccc2)sc1-c1cc(=O)c2ccccc2o1` [Compound S1-M1, 2-(4-amino-2-(phenylamino)thiazol-5-yl)-4H-chromen-4-one], the viability at 5 µM worked out at 75.5%.

Turning to `Cc1ccc(Nc2nc(N)c(-c3cc(=O)c4ccc(O)cc4o3)s2)cc1` [Compound S1-M2, 2-(2-(p-tolylamino)-4-aminothiazol-5-yl)-7-hydroxy-4H-chromen-4-one], the viability at 5 µM is 24.1%.

`Cc1ccccc1Nc1nc(N)c(-c2cc(=O)c3ccc(O)cc3o2)s1` [Compound S1-M3, 2-(2-(o-tolylamino)-4-aminothiazol-5-yl)-7-hydroxy-4H-chromen-4-one] returned a viability at 5 µM of 74.8%.

Staying with this data set, now noted: Homo sapiens, A549, 10 μM, 72 h.
`Nc1nc(Nc2ccccc2)sc1-c1cc(=O)c2ccccc2o1` [Compound S1-M1, 2-(4-amino-2-(phenylamino)thiazol-5-yl)-4H-chromen-4-one] showed a viability at 10 µM of 60.5%.

In turn, `Cc1ccc(Nc2nc(N)c(-c3cc(=O)c4ccc(O)cc4o3)s2)cc1` [Compound S1-M2, 2-(2-(p-tolylamino)-4-aminothiazol-5-yl)-7-hydroxy-4H-chromen-4-one] yielded a viability at 10 µM of 20.9%.

For the molecule `Cc1ccccc1Nc1nc(N)c(-c2cc(=O)c3ccc(O)cc3o2)s1` [Compound S1-M3, 2-(2-(o-tolylamino)-4-aminothiazol-5-yl)-7-hydroxy-4H-chromen-4-one], the viability at 10 µM was found to be 55.8%.

System in the next data set: not listed separately
The experiment in a line: Log P (Table 4). The format is physicochemical. The conditions noted are these: method not stated.
In general, logP refers to the decadic logarithm of the partition coefficient of the neutral form, usually between octanol and water. A low value points to a more hydrophilic compound. The molecule `Nc1nc(Nc2ccccc2)sc1-c1cc(=O)c2ccccc2o1` [Compound S1-M1, 2-(4-amino-2-(phenylamino)thiazol-5-yl)-4H-chromen-4-one] returned a logP of 3.2.

As for `Cc1ccc(Nc2nc(N)c(-c3cc(=O)c4ccc(O)cc4o3)s2)cc1` [Compound S1-M2, 2-(2-(p-tolylamino)-4-aminothiazol-5-yl)-7-hydroxy-4H-chromen-4-one], the logP was 1.9.

In turn, `Cc1ccccc1Nc1nc(N)c(-c2cc(=O)c3ccc(O)cc3o2)s1` [Compound S1-M3, 2-(2-(o-tolylamino)-4-aminothiazol-5-yl)-7-hydroxy-4H-chromen-4-one] gave a lipophilicity (logP) of 2.01.

System in the next data set: not given
Experiment: not given
Conditions: not given
A word on the melting point: it is the temperature, or range, at which the solid turns liquid. Turning to `Nc1nc(Nc2ccccc2)sc1-c1cc(=O)c2ccccc2o1` [Compound S1-M1, 2-(4-amino-2-(phenylamino)thiazol-5-yl)-4H-chromen-4-one], the melting point lay in the range of 232 to 234 °C.

`Cc1ccc(Nc2nc(N)c(-c3cc(=O)c4ccc(O)cc4o3)s2)cc1` [Compound S1-M2, 2-(2-(p-tolylamino)-4-aminothiazol-5-yl)-7-hydroxy-4H-chromen-4-one] showed a melting point of 244 to 246 °C.

In the case of `Cc1ccccc1Nc1nc(N)c(-c2cc(=O)c3ccc(O)cc3o2)s1` [Compound S1-M3, 2-(2-(o-tolylamino)-4-aminothiazol-5-yl)-7-hydroxy-4H-chromen-4-one], the melting point lay in the range of 268 to 270 °C.

The next data set has as its system U87MG Cell line (glioblastoma cell line). The experiment in a line: Cell proliferation assay (MTT), in-vitro anticancer activity against U87MG cell line. The format is cell-based. The conditions noted are these: Homo sapiens, U-87 MG, 0.01 μM, 72 h. The method, then:
as §1
In-Vitro Anticancer Activity Against U87MG Cell Line (Glioblastoma Cell Line)
Regarding `Nc1nc(Nc2ccccc2)sc1-c1cc(=O)c2ccccc2o1` [Compound S1-M1, 2-(4-amino-2-(phenylamino)thiazol-5-yl)-4H-chromen-4-one], the viability at 0.01 µM stood at 88%.

As to `Cc1ccc(Nc2nc(N)c(-c3cc(=O)c4ccc(O)cc4o3)s2)cc1` [Compound S1-M2, 2-(2-(p-tolylamino)-4-aminothiazol-5-yl)-7-hydroxy-4H-chromen-4-one], the viability at 0.01 µM worked out at 41.1%.

`Cc1ccccc1Nc1nc(N)c(-c2cc(=O)c3ccc(O)cc3o2)s1` [Compound S1-M3, 2-(2-(o-tolylamino)-4-aminothiazol-5-yl)-7-hydroxy-4H-chromen-4-one] gave a viability at 0.01 µM of 82.6%.

The data set is the same for the next values; noted with them: Homo sapiens, U-87 MG, 0.1 μM, 72 h.
Turning to `Nc1nc(Nc2ccccc2)sc1-c1cc(=O)c2ccccc2o1` [Compound S1-M1, 2-(4-amino-2-(phenylamino)thiazol-5-yl)-4H-chromen-4-one], the viability at 0.1 µM worked out at 79.5%.

In turn, `Cc1ccc(Nc2nc(N)c(-c3cc(=O)c4ccc(O)cc4o3)s2)cc1` [Compound S1-M2, 2-(2-(p-tolylamino)-4-aminothiazol-5-yl)-7-hydroxy-4H-chromen-4-one] yielded a viability at 0.1 µM of 34.4%.

The molecule `Cc1ccccc1Nc1nc(N)c(-c2cc(=O)c3ccc(O)cc3o2)s1` [Compound S1-M3, 2-(2-(o-tolylamino)-4-aminothiazol-5-yl)-7-hydroxy-4H-chromen-4-one] yielded a viability at 0.1 µM of 74.4%.

The data set is the same for the next values; noted with them: Homo sapiens, U-87 MG, 2.5 μM, 72 h.
In turn, `Nc1nc(Nc2ccccc2)sc1-c1cc(=O)c2ccccc2o1` [Compound S1-M1, 2-(4-amino-2-(phenylamino)thiazol-5-yl)-4H-chromen-4-one] returned a viability at 2.5 µM of 70.5%.

Turning to `Cc1ccc(Nc2nc(N)c(-c3cc(=O)c4ccc(O)cc4o3)s2)cc1` [Compound S1-M2, 2-(2-(p-tolylamino)-4-aminothiazol-5-yl)-7-hydroxy-4H-chromen-4-one], the viability at 2.5 µM is 28.1%.

For the molecule `Cc1ccccc1Nc1nc(N)c(-c2cc(=O)c3ccc(O)cc3o2)s1` [Compound S1-M3, 2-(2-(o-tolylamino)-4-aminothiazol-5-yl)-7-hydroxy-4H-chromen-4-one], the viability at 2.5 µM was 68.8%.

The data set is the same for the next values; noted with them: Homo sapiens, U-87 MG, 5 μM, 72 h.
For the molecule `Nc1nc(Nc2ccccc2)sc1-c1cc(=O)c2ccccc2o1` [Compound S1-M1, 2-(4-amino-2-(phenylamino)thiazol-5-yl)-4H-chromen-4-one], the viability at 5 µM turned out to be 62.5%.

Consider `Cc1ccc(Nc2nc(N)c(-c3cc(=O)c4ccc(O)cc4o3)s2)cc1` [Compound S1-M2, 2-(2-(p-tolylamino)-4-aminothiazol-5-yl)-7-hydroxy-4H-chromen-4-one], for which the viability at 5 µM came out at 19.6%.

Consider `Cc1ccccc1Nc1nc(N)c(-c2cc(=O)c3ccc(O)cc3o2)s1` [Compound S1-M3, 2-(2-(o-tolylamino)-4-aminothiazol-5-yl)-7-hydroxy-4H-chromen-4-one], for which the viability at 5 µM turned out to be 60.8%.

Staying with this data set, now noted: Homo sapiens, U-87 MG, 10 μM, 72 h.
As for `Nc1nc(Nc2ccccc2)sc1-c1cc(=O)c2ccccc2o1` [Compound S1-M1, 2-(4-amino-2-(phenylamino)thiazol-5-yl)-4H-chromen-4-one], the viability at 10 µM was 51.5%.

In turn, `Cc1ccc(Nc2nc(N)c(-c3cc(=O)c4ccc(O)cc4o3)s2)cc1` [Compound S1-M2, 2-(2-(p-tolylamino)-4-aminothiazol-5-yl)-7-hydroxy-4H-chromen-4-one] gave a viability at 10 µM of 14.9%.

`Cc1ccccc1Nc1nc(N)c(-c2cc(=O)c3ccc(O)cc3o2)s1` [Compound S1-M3, 2-(2-(o-tolylamino)-4-aminothiazol-5-yl)-7-hydroxy-4H-chromen-4-one] yielded a viability at 10 µM of 54.8%.
